According to patent publication US20250255867A1 (Kadmon Corporation, LLC, priority 2022, published 2025):

Conditions: Cohort 1 200 mg QD

CC(C)NC(=O)COc1cccc(-c2nc(Nc3ccc4[nH]ncc4c3)c3ccccc3n2)c1 [Belumosudil, 2-{3-[4-(1H-indazol-5-ylamino)-2-quinazolinyl]phenoxy}-N-(propan-2-yl) acetamide]
SAE Lipomatosis, # events: 1
SAE Lipomatosis, affected/at risk: 1/17
SAE Metastases to meninges, # events: 1
SAE Metastases to meninges, affected/at risk: 1/17
SAE Muscular weakness, # events: 0
SAE Muscular weakness, affected/at risk: 0/17
SAE Myelodysplastic syndrome, # events: 0
SAE Myelodysplastic syndrome, affected/at risk: 0/17
SAE Non-cardiac chest pain, # events: 0
SAE Non-cardiac chest pain, affected/at risk: 0/17
SAE Obliterative bronchiolitis, # events: 1
SAE Obliterative bronchiolitis, affected/at risk: 1/17
SAE Pericardial effusion, # events: 0
SAE Pericardial effusion, affected/at risk: 0/17
SAE Pleural effusion, # events: 0
SAE Pleural effusion, affected/at risk: 0/17
SAE Pneumonia viral, # events: 0
SAE Pneumonia viral, affected/at risk: 0/17
SAE Pneumonia, # events: 2
SAE Pneumonia, affected/at risk: 1/17
SAE Pregnancy of partner, # events: 0
SAE Pregnancy of partner, affected/at risk: 0/17
SAE Proteinuria, # events: 1
SAE Proteinuria, affected/at risk: 1/17
SAE Respirovirus test positive, # events: 0
SAE Respirovirus test positive, affected/at risk: 0/17
SAE Small intestinal obstruction, # events: 0
SAE Small intestinal obstruction, affected/at risk: 0/17
SAE Stenotrophomonas infection, # events: 0
SAE Stenotrophomonas infection, affected/at risk: 0/17
SAE Urinary retention, # events: 0
SAE Urinary retention, affected/at risk: 0/17
SAE Urinary tract infection, # events: 0
SAE Urinary tract infection, affected/at risk: 0/17
SAE Varicella zoster virus infection, # events: 0
SAE Varicella zoster virus infection, affected/at risk: 0/17
SAE total, affected/at risk: 5/17
Sinus pain: # Events: 2
Sinus pain: Affected/At Risk: 2/17
Sinus pain: Affected/At Risk (%): (11.76%)
Sinusitis: # Events: 1
Sinusitis: Affected/At Risk: 1/17
Sinusitis: Affected/At Risk (%): (5.88%)
Skin abrasion: # Events: 0
Skin abrasion: Affected/At Risk: 0/17
Skin abrasion: Affected/At Risk (%): (0%)
Skin lesion: # Events: 0
Skin lesion: Affected/At Risk: 0/17
Skin lesion: Affected/At Risk (%): (0%)
Skin papilloma: # Events: 1
Skin papilloma: Affected/At Risk: 1/17
Skin papilloma: Affected/At Risk (%): (5.88%)
Spinal compression fracture: # Events: 1
Spinal compression fracture: Affected/At Risk: 1/17
Spinal compression fracture: Affected/At Risk (%): (5.88%)
Squamous cell carcinoma of skin: # Events: 0
Squamous cell carcinoma of skin: Affected/At Risk: 0/17
Squamous cell carcinoma of skin: Affected/At Risk (%): (0%)
Stomatitis: # Events: 2
Stomatitis: Affected/At Risk: 1/17
Stomatitis: Affected/At Risk (%): (5.88%)
Superior vena cava syndrome: # Events: 0
Superior vena cava syndrome: Affected/At Risk: 0/17
Superior vena cava syndrome: Affected/At Risk (%): (0%)
Tachycardia: # Events: 0
Tachycardia: Affected/At Risk: 0/17
Tachycardia: Affected/At Risk (%): (0%)
Tendonitis: # Events: 0
Tendonitis: Affected/At Risk: 0/17
Tendonitis: Affected/At Risk (%): (0%)
Testicular pain: # Events: 1
Testicular pain: Affected/At Risk: 1/17
Testicular pain: Affected/At Risk (%): (5.88%)
Testicular swelling: # Events: 1
Testicular swelling: Affected/At Risk: 1/17
Testicular swelling: Affected/At Risk (%): (5.88%)
Thoracic spinal stenosis: # Events: 1
Thoracic spinal stenosis: Affected/At Risk: 1/17
Thoracic spinal stenosis: Affected/At Risk (%): (5.88%)
Thrombocytopenia: # Events: 0
Thrombocytopenia: Affected/At Risk: 0/17
Thrombocytopenia: Affected/At Risk (%): (0%)
Thrombocytosis: # Events: 1
Thrombocytosis: Affected/At Risk: 1/17
Thrombocytosis: Affected/At Risk (%): (5.88%)
Tinea pedis: # Events: 0
Tinea pedis: Affected/At Risk: 0/17
Tinea pedis: Affected/At Risk (%): (0%)
Tooth fracture: # Events: 0
Tooth fracture: Affected/At Risk: 0/17
Tooth fracture: Affected/At Risk (%): (0%)
Total Other Adverse Events: Affected/At Risk: 17/17
Total Other Adverse Events: Affected/At Risk (%): (100%)
Transfusion reaction: # Events: 1
Transfusion reaction: Affected/At Risk: 1/17
Transfusion reaction: Affected/At Risk (%): (5.88%)
Tremor: # Events: 3
Tremor: Affected/At Risk: 2/17
Tremor: Affected/At Risk (%): (11.76%)
Type 2 diabetes mellitus: # Events: 1
Type 2 diabetes mellitus: Affected/At Risk: 1/17
Type 2 diabetes mellitus: Affected/At Risk (%): (5.88%)
Ulcerative keratitis: # Events: 0
Ulcerative keratitis: Affected/At Risk: 0/17
Ulcerative keratitis: Affected/At Risk (%): (0%)
Upper respiratory tract infection: # Events: 16
Upper respiratory tract infection: Affected/At Risk: 9/17
Upper respiratory tract infection: Affected/At Risk (%): (52.94%)
Upper-airway cough syndrome: # Events: 0
Upper-airway cough syndrome: Affected/At Risk: 0/17
Upper-airway cough syndrome: Affected/At Risk (%): (0%)
Urinary retention: # Events: 0
Urinary retention: Affected/At Risk: 0/17
Urinary retention: Affected/At Risk (%): (0%)
Urinary tract infection: # Events: 0
Urinary tract infection: Affected/At Risk: 0/17
Urinary tract infection: Affected/At Risk (%): (0%)
Urinary tract pain: # Events: 0
Urinary tract pain: Affected/At Risk: 0/17
Urinary tract pain: Affected/At Risk (%): (0%)
Urine output decreased: # Events: 1
Urine output decreased: Affected/At Risk: 1/17
Urine output decreased: Affected/At Risk (%): (5.88%)
Vascular access complication: # Events: 0
Vascular access complication: Affected/At Risk: 0/17
Vascular access complication: Affected/At Risk (%): (0%)
Vertigo: # Events: 2
Vertigo: Affected/At Risk: 2/17
Vertigo: Affected/At Risk (%): (11.76%)
Vision blurred: # Events: 0
Vision blurred: Affected/At Risk: 0/17
Vision blurred: Affected/At Risk (%): (0%)
Vomiting: # Events: 4
Vomiting: Affected/At Risk: 2/17
Vomiting: Affected/At Risk (%): (11.76%)
Weight decreased: # Events: 1
Weight decreased: Affected/At Risk: 1/17
